# In patent publication US20120322842A1, “HETEROCYCYL-SUBSTITUTED-ALKYLAMINOPHENYL DERIVATIVES, THEIR PREPARATION AND USE AS MEDICAMENTS” (LABORATORIOS DEL DR. ESTEVE, S.A., priority 2009, published 2012):
# Molecular target: T1, Cloned Human Serotonin Receptor, Subtype 7 (h5HT7) (Homo sapiens, UniProt P34969)
# T1 construct: purchased PerkinElmer 6120512; host or cells: CHO cells
# Test: Radioligand binding assay, [125I]LSD, cloned human 5-HT7 receptor expressed in CHO cells (Flashplate)
# Settings: not given
# Protocol: Radioligand binding assays were performed using the Cloned Human Serotonin Receptor, Subtype 7 (h5HT7), expressed in CHO cells, coated on Flashplate (Basic FlashPlate Cat.: SMP200) from PerkinElmer (Cat.: 6120512). The protocol assay was essentially the recommended protocol in the Technical Data Sheet by PerkinEmer Life and Analytical Sciences. The Mass membrane protein/well was typically […] and the Receptor/well was about 9-10 fmoles. The Flashplate were let equilibrate at room temperature for one hour before the addition of the components of the assay mixture. The binding buffer was: 50 mM Tris-HCl, pH 7.4, containing 10 mM MgCl2, 0.5 mM EDTA and 0.5% BSA. The radioligand was [^125I]LSD at a final concentration of 0.82 nM. Nonspecific binding was determined with 50 µM of Clozapine. The assay volume was 25 l. TopSeal-A were applied onto Flashplate microplates and they were incubated at room temperature for 240 minutes in darkness. The radioactivity were quantified by liquid scintillation spectrophotometry (Wallac 1450 Microbeta Trilux) with a count delay of 4 minutes prior to counting and a counting time of 30 seconds per well. Competition binding data were analyzed by using the LIGAND program (Munson and Rodbard, LIGAND: A versatile, computerized approach for characterization of ligandbinding systems. Anal. Biochem. 107: 220-239, 1980) and assays were performed in triplicate determinations for each point.
# T1 sequence (P34969 whole entry): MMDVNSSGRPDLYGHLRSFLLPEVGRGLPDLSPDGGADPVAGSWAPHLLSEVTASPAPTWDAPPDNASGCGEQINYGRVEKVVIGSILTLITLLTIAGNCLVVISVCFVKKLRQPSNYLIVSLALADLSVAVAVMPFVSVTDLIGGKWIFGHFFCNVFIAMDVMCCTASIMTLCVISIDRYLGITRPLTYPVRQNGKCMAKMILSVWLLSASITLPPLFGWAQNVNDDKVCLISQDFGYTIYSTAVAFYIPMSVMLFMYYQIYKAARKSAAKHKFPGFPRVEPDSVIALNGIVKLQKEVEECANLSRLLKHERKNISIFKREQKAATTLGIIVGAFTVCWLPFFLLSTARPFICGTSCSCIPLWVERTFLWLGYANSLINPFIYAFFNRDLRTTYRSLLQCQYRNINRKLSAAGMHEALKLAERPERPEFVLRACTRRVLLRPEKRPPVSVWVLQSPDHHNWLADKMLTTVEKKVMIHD
row,SMILES,Ki
1,"COc1ccc(-c2c(C)c(C)nn2C(C)C)cc1CCN(C)C [Example 31, 2-(5-(1-isopropyl-3,4-dimethyl-1H-pyrazol-5-yl)-2-methoxyphenyl)-N,N-dimethyl ethanamine]",83.1 nM
2,"CCn1nc(C)c(C)c1-c1ccc(OC)c(CCN(C)C)c1 [Example 28, 2-(5-(1-ethyl-3,4-dimethyl-1H-pyrazol-5-yl)-2-methoxyphenyl)-N,N-dimethyl ethanamine]",81.9 nM
3,"CCc1c(C)nn(C)c1-c1ccc(OC)c(CCN(C)C)c1 [Example 3, 2-(5-(4-ethyl-1,3-dimethyl-1H-pyrazol-5-yl)-2-methoxyphenyl)-N,N-dimethyl ethanamine]",599 nM
4,"COc1ccc(-c2c(C)c(C)nn2C)cc1CCN(C)C [Example 9, 2-(2-methoxy-5-(1,3,4-trimethyl-1H-pyrazol-5-yl)phenyl)-N,N-dimethylethanamine]",113 ± 2.6 nM

# Same assay, conditions: h5HT7 expressed in CHO cells; radioligand [125I]LSD 0.82 nM; nonspecific binding with clozapine; triplicate determinations; read-out: 5-HT7 Ki
row,SMILES,Ki
1,"CCc1c(C)nn(C)c1-c1ccc(O)c(CCN(C)C)c1 [Example 4, 2-(2-(dimethylamino)ethyl)-4-(4-ethyl-1,3-dimethyl-1H-pyrazol-5-yl)phenol]",577 ± 81.6 nM
2,"Cc1nn(C)c(-c2cccc(CCN(C)C)c2)c1C [Example 8, N,N-dimethyl-2-(3-(1,3,4-trimethyl-1H-pyrazol-5-yl)phenyl)ethanamine]",261 ± 102 nM
3,"CNCCc1cc(-c2c(C)c(C)nn2C)ccc1O [Example 11, 2-(2-(methylamino)ethyl)-4-(1,3,4-trimethyl-1H-pyrazol-5-yl)phenol]",23.5 ± 5.2 nM
4,"COc1ccc(-c2c3c(nn2-c2ccccc2)CCCC3)cc1CCN(C)C [Example 25, 2-(2-methoxy-5-(2-phenyl-4,5,6,7-tetrahydro-2H-indazol-3-yl)phenyl)-N,N-dimethyl ethanamine]",420 nM
5,"Cc1nn(CC(F)(F)F)c(-c2cccc(CCN(C)C)c2)c1C [Example 33, 2-(3-(3,4-dimethyl-1-(2,2,2-trifluoroethyl)-1H-pyrazol-5-yl)phenyl)-N,N-dimethyl ethanamine]",527 nM
6,"COc1ccc(-c2c(-c3ccccc3)c(C)nn2-c2ccccc2)cc1CCN(C)C [Example 19, 2-(2-methoxy-5-(3-methyl-1,4-diphenyl-1H-pyrazol-5-yl)phenyl)-N,N-dimethyl ethanamine]",447 ± 64.8 nM
7,"CCc1c(C)nn(C)c1-c1cccc(CCN(C)C)c1 [Example 2, 2-(3-(4-ethyl-1,3-dimethyl-1H-pyrazol-5-yl)phenyl)-N,N-dimethylethanamine]",597 nM
8,"COc1ccc(-c2c(C)c(C)nn2-c2ccccc2)cc1CCN(C)C [Example 22, 2-(5-(3,4-dimethyl-1-phenyl-1H-pyrazol-5-yl)-2-methoxyphenyl)-N,N-dimethyl ethanamine]",391 nM
9,"CCn1nc(C)c(C)c1-c1ccc(O)c(CCN(C)C)c1 [Example 29, 2-(2-(dimethylamino)ethyl)-4-(1-ethyl-3,4-dimethyl-1H-pyrazol-5-yl)phenol]",102 nM
10,"Cc1nn(C(C)C)c(-c2ccc(O)c(CCN(C)C)c2)c1C [Example 32, 2-(2-(dimethylamino)ethyl)-4-(1-isopropyl-3,4-dimethyl-1H-pyrazol-5-yl)phenol]",150 nM
11,"Cc1nn(C)c(-c2ccc(O)c(CCN(C)C)c2)c1C [Example 10, 2-(2-(dimethylamino)ethyl)-4-(1,3,4-trimethyl-1H-pyrazol-5-yl)phenol]",102 nM
12,"Cc1nn(-c2ccccc2)c(-c2ccc(O)c(CCN(C)C)c2)c1C [Example 23, 4-(3,4-dimethyl-1-phenyl-1H-pyrazol-5-yl)-2-(2-(dimethylamino)ethyl)phenol]",611 nM
13,"Cc1nn(C(C)C)c(-c2cccc(CCN(C)C)c2)c1C [Example 30, 2-(3-(1-isopropyl-3,4-dimethyl-1H-pyrazol-5-yl)phenyl)-N,N-dimethylethanamine]",300 nM
14,"COc1ccc(-c2c(C)c(C)nn2CC(F)(F)F)cc1CCN(C)C [Example 34, 2-(5-(3,4-dimethyl-1-(2,2,2-trifluoroethyl)-1H-pyrazol-5-yl)-2-methoxyphenyl)-N,N-dimethyl ethanamine]",146 nM
15,"Cc1nn(CC(F)(F)F)c(-c2ccc(O)c(CCN(C)C)c2)c1C [Example 35, 4-(3,4-dimethyl-1-(2,2,2-trifluoroethyl)-1H-pyrazol-5-yl)-2-(2-(dimethylamino)ethyl)phenol]",320 nM
